# Tests used:
# [1] = parameters: method as in unpublished data, MM Savić and B Divović Matović; conditions: doses 1 to 30 mg/kg; ref unpublished data, MM Savić and B Divović Matović; cited from earlier work
# dopamine transporter = biological target: dopamine transporter; parameters: method as in PDSP Ki database https://pdspdb.unc.edu/databases/kidb.php; conditions: ref PDSP Ki database https://pdspdb.unc.edu/databases/kidb.php; cited from earlier work
# σ2 receptors [2] = biological target: σ2 receptors; parameters: method as in PDSP Ki database https://pdspdb.unc.edu/databases/kidb.php; conditions: ref PDSP Ki database https://pdspdb.unc.edu/databases/kidb.php; cited from earlier work
# [3] = biological target: benzodiazepine binding site at GABAA receptors; parameters: method as in PDSP Ki database https://pdspdb.unc.edu/databases/kidb.php; conditions: ref PDSP Ki database https://pdspdb.unc.edu/databases/kidb.php; cited from earlier work
# σ2 receptors [4] = test: PDSP binding study, σ2 receptors; conditions: versus the other four hits of the primary screen
# [5] = Solubility, shake-flask method; assay type: physicochemical; conditions: thermodynamic from solid
# Experimental: The solubility of CW-02-79 in selected oils, organic solvents, and water solutions of various pH values was examined by using the shake-flask method, by adding an excess amount of CW-02-79. The blends were mixed on a vortex mixer for 24 h at 25 ± 2 °C to reach equilibrium. The samples were centrifuged (1000× g, 10 min, 25 °C) on a MiniSpin® plus centrifuge (Eppendorf, Hamburg, Germany). The concentration of CW-02-79 was determined after proper dilution of the supernatant with isopropanol using the LC-MS/MS method.
# The concentration of CW-02-79 was determined using a LC-MS/MS method. The analysis was performed on a UHPLC chromatograph ACELLA (Thermo Fisher Scientific Inc., Madison, WI, USA), coupled to a triple quadrupole mass spectrometer TSQ Quantum Access MAX (Thermo Fisher Scientific Inc., Madison, WI, USA) with a heated electrospray ionization (HESI) interface. The column was XTerra MS C18 (150 mm × 2.1 mm, […] particle size). The mobile phase was acetonitrile/0.1% formic acid = 70:30 (v/v), the flow rate was 0.2 mL min^−1, the column temperature was set to 35 °C, and the injection volume was 10 µL. CW-02-79 and the internal standard were detected and quantified in the positive HESI mode (m/z = 389.90–345.90 and m/z = 349.00–304.11, respectively).
# 5-HT7 receptor = biological target: 5-HT7 receptor; parameters: method as in PDSP Ki database https://pdspdb.unc.edu/databases/kidb.php; conditions: ref PDSP Ki database https://pdspdb.unc.edu/databases/kidb.php; cited from earlier work
# histamine H2 receptor = biological target: histamine H2 receptor; parameters: method as in PDSP Ki database https://pdspdb.unc.edu/databases/kidb.php; conditions: ref PDSP Ki database https://pdspdb.unc.edu/databases/kidb.php; cited from earlier work
# [6] = In vitro permeation through iPSC-derived blood–brain barrier model; assay type: in vitro ADME, human; conditions: inserts without cells; read-out: recovery of CW-02-79 without cells
# Excerpt: The in vitro BBB model based on the co-culture of iPSC-derived brain microvascular endothelial cells, astrocytes, and pericytes was used to estimate the transport of CW-02-79 into the brain from the developed nanoemulsions (the protocol used is available on the manufacturer’s website: iCell Blood Brain Barrier Isogenic Kit protocol, FujiFilm Cellular Dynamic Inc., Madison, WI, USA) [24]. Cell culture inserts for BBB co-cultures (pore size 0.4 µm, effective cell growth area 0.33 cm^2, Falcon®, Corning Inc., Salt Lake City, UT, USA) were coated on the apical side with a fibronectin-collagen IV matrix and on the basolateral side with a 0.1% gelatin solution. Then, astrocyte and pericyte suspensions were seeded on the basolateral side, with brain microvascular endothelial cells in the apical region of inserts, followed by overnight incubation at 37 °C and 5% CO2. […]
# The total volume on the basolateral side was compensated with 100 µL of the fresh termostated medium. […] The mass balance (%) was also determined based on the amount of CW-02-79 determined in both the apical and basolateral compartments at the end of the assay divided by the total amount of CW-02-79 placed in the apical compartment to assess the potential adsorption to plastic or non-specific binding to cells.
# [7] = test system: GABAA receptors that contain any of the α1 to α6 subunits; parameters: method as in personal communication with Dr. Janet Fisher; conditions: 10 µM; ref personal communication with Dr. Janet Fisher; cited from earlier work
smiles,measurement,setting,value
"COc1ccc2c3nn(-c4ccc(OC(F)(F)F)cc4)c(=O)c-3c[nH]c2c1C [CW-02-79, 7-methoxy-6-methyl-2-(4-(trifluoromethoxy)phenyl)-2,5-dihydro-3H-pyrazolo [4,3-c]quinolin-3-one]",signs of sedation or motor incapacitation,[1],no signs of sedation or motor incapacitation
same,Ki,dopamine transporter,> 10 µM
same,Ki,σ2 receptors [2],0.112 µM
same,Ki,[3],4.7 µM
same,selectivity for σ2 receptors,σ2 receptors [4],≥ 20 fold
same,solubility at 24 h,"[5]; aqueous buffer, Phosphate buffer, pH 7.4, 25 °C",11.8 ± 0.7 µg/mL
same,solubility at 24 h,"[5]; oil or lipid, Castor oil, 25 °C",27.96 ± 0.03 µg/mL
same,solubility at 24 h,"[5]; oil or lipid, Fish oil, 25 °C",34.19 ± 0.06 µg/mL
same,solubility at 24 h,"[5]; oil or lipid, MCT, 25 °C",49.93 ± 0.07 µg/mL
same,solubility at 24 h,"[5]; oil or lipid, MCT:castor oil (1:1, w/w), 25 °C",218.4 ± 0.3 µg/mL
same,solubility at 24 h,"[5]; oil or lipid, MCT:soybean oil (1:1, w/w), 25 °C",41.41 ± 0.04 µg/mL
same,solubility at 24 h,"[5]; oil or lipid, Soybean oil, 25 °C",65.68 ± 0.43 µg/mL
same,solubility at 24 h,"[5]; organic solvent or mixture, DMSO, 25 °C",> 30000 µg/mL
same,solubility at 24 h,"[5]; organic solvent or mixture, Isopropanol, 25 °C",5750 µg/mL
same,solubility at 24 h,"[5]; organic solvent or mixture, Methanol, 25 °C",939.1 ± 3.53 µg/mL
same,solubility at 24 h,"[5]; simulated gastric fluid, 0.1M HCl, 25 °C",12.3 ± 0.61 µg/mL
same,solubility at 24 h,"[5]; Ultrapure water, 25 °C",11.8 ± 0.2 µg/mL
same,Ki,5-HT7 receptor,2.4 µM
same,Ki,histamine H2 receptor,5.2 µM
same,"recovery at 24 h, 3 µM",[6],~100%
same,modulation of GABAA receptors,[7],does not at all modulate

# From PMC11858841, “Intravenous Nanoemulsions Loaded with Phospholipid Complex of a Novel Pyrazoloquinolinone Ligand for Enhanced Brain Delivery” (Pharmaceutics, 2025)
